Patent US12419893B2, “Methods and compositions for maximizing the prevention and/or reduction of various maladies and drug side-effects using uridine” (Tosk, Inc., priority 2018, dated 2025)

Tests used:
[1] = man and animals (Deng et al. 2017); cited from earlier work
[2] = cited from earlier work
female CD-1 mice = assay: Protection from 5-FU induced weight loss, study I (FIG. 2); type: in vivo; details: n=6
Procedure: The aim of this study was to explore whether uridine combined with a uridine phosphorylase inhibitor provided better protection from weight loss produced by 5-FU compared to uridine alone. Weight loss is one of the cardinal features of mucositis.
Four groups of female CD-1 mice were treated with daily ip injections of either PBS vehicle (Group 1), 80 mg/kg, 5-FU qdx5 (Groups 2), or 80 mg/kg, 5-FU qdx5 combined with 750 mg/kg uridine, bid, or 80 mg/kg, 5-FU qdx5 combined with 750 mg/kg uridine and 120 mg/kg bid TK-90, a representative 2,2′-anhydropyrimidine test article, sandwiched before and after the uridine doses. Controls include PBS alone at times mimicking the time for 5-FU and combined uridine and TK-90 treatments. There was n=6 animals in all groups.
Animals were sacrificed on Day 5 by cervical dislocation and properly disposed. Animal weights were recorded daily for 5 days and the % difference between Day 0 and Day 5 at termination calculated.
Results from the study are provided as percent weight gain/loss from pre-dose weight on Day 0 in FIG. 2. […] The statistical difference between Groups 2 and 3 was much less robust (p=0.036).

C57BL/6 female mice = assay: Protection from decrease in plasma citrulline caused by 5-FU (FIG. 4); type: in vivo
Procedure: The chemotherapeutic challenge, 5-FU, was diminished plasma citrulline. […] Citrulline is a well-accepted surrogate marker for mucositis.
FIG. 4 depicts citrulline concentrations measured in plasma obtained at sacrifice on Day 3 from C57BL/6 female mice, approximately 20 g, treated on Day 0 with 200 mg/kg 5-FU, ip. On Days 0-2, the uridine and uridine+TK-90 group animals were dosed with […], bid. On Days 0-2, the uridine+TK-90 group animals were treated with 700 mg/kg TK-90, bid, in addition to the 5-FU on Day 0 and the uridine on Days 0-2. Animals in the PBS group were treated on Day 0-2 with PBS, bid. Data from all six mice in the PBS, uridine and uridine plus TK-90 groups were considered. Data from only five animals in the 5-FU group were considered because results from one animal was considered an outlier (unusually low response from the injected 5-FU). Plasma citrulline is a marker for mucosal health. […]
Thawed plasma samples from the study were analyzed for citrulline using a published LC/MS/MS-Isotope assay. (Jones et al., “Development and validation of a LC-MS/MS assay for quantitation of plasma citrulline for application to animal models of the acute radiation syndrome across multiple species,” Anal Bioanal Chem. (2014) 406 (19): 4663-75.).

| weight loss compared to the PBS vehicle control (percent weight change Day 5 vs Day 0) (female CD-1 mice; 80 mg/kg 5-FU qdx5 ip) | plasma citrulline compared to the PBS vehicle control (C57BL/6 female mice; 200 mg/kg 5-FU ip Day 0, plasma at Day 3, n=5) | Compound | half-life of administered uridine [1] | toxicities of continuous infusions of high-dose uridine ([2]; continuous infusion) | toxicity of high-dose oral uridine in clinical studies ([2]; oral, patients) | protection from 5-FU induced weight loss compared to the 5-FU group alone (female CD-1 mice; Day 5 vs Day 0, 5-FU 80 mg/kg qdx5, uridine 750 mg/kg bid, TK-90 120 mg/kg bid, ip) | protection from 5-FU lowered plasma citrulline (C57BL/6 female mice; 5-FU 200 mg/kg ip Day 0, uridine 250 mg bid Days 0-2, TK-90 700 mg/kg bid Days 0-2, plasma Day 3, n=6) |
| --- | --- | --- | --- | --- | --- | --- | --- |
|  |  | O=c1ccn([C@@H]2O[C@H](CO)[C@@H](O)[C@H]2O)c(=O)[nH]1 [uridine] | ~3 min | high fever, cellulitis, and superior vena cava syndrome | severe patient diarrhea, phlebitis, and pyrogenic reactions | statistically significant but much less | provided protection |
| robust weight loss | significant reduction in citrulline | O=c1[nH]cc(F)c(=O)[nH]1 [Compound 5-FU, 5-fluoro-2,4 (1H,3H)-Pyrimidinedione] |  |  |  |  |  |
